Assay results published in PubChem BioAssay (NCI).
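GI50 = concentration required for 50% inhibition of growth. TGI denotes the concentration required for complete inhibition of growth.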

Columns and labels:
Assay in all cases: growth of human tumour cells (NCI), 384-well format
MOLT-4 leukemia = system: MOLT-4 leukemia
CCRF-CEM leukemia = system: CCRF-CEM leukemia
SR leukemia = system: SR leukemia
HCT-116 colon = system: HCT-116 colon
HCT-15 colon = system: HCT-15 colon
MDA-MB-468 breast = system: MDA-MB-468 breast
SNB-75 CNS = system: SNB-75 CNS
U251 glioblastoma = system: U251 glioblastoma
NCI-H226 lung = system: NCI-H226 lung
SF-539 CNS = system: SF-539 CNS
PC-3 prostate = system: PC-3 prostate
DU-145 prostate = system: DU-145 prostate
IGROV1 ovarian = system: IGROV1 ovarian

Q: Which GI50 (MOLT-4 leukemia) does the source give for `CS(=O)(=O)N1CCN(Cc2cc3nc(-c4cccc5[nH]ncc45)nc(N4CCOCC4)c3s2)CC1` here?
A: The GI50 was 82.2 nM.

Q: And the TGI (MOLT-4 leukemia)?
A: The TGI was 363 nM.

Q: And the GI50 (CCRF-CEM leukemia)?
A: Its GI50 is 1800 nM.

Q: What about the TGI (CCRF-CEM leukemia) of the same molecule?
A: The TGI was 6980 nM.

Q: What about the GI50 (SR leukemia) of the same molecule?
A: Its GI50 is 1530 nM.

Q: What about the TGI (SR leukemia) of the same molecule?
A: Its TGI is 4010 nM.

Q: What about the GI50 (HCT-116 colon) of the same molecule?
A: The GI50 was 1930 nM.

Q: What about the TGI (HCT-116 colon) of the same molecule?
A: The TGI was greater than 100000 nM.

Q: And the GI50 (HCT-15 colon)?
A: The GI50 was 708 nM.

Q: What about the TGI (HCT-15 colon) of the same molecule?
A: The TGI was 24100 nM.

Q: And the GI50 (MDA-MB-468 breast)?
A: The GI50 was 127 nM.

Q: What about the TGI (MDA-MB-468 breast) of the same molecule?
A: The TGI was 685 nM.

Q: And the GI50 (SNB-75 CNS)?
A: Its GI50 is 102 nM.

Q: And the TGI (SNB-75 CNS)?
A: Its TGI is 533 nM.

Q: And the GI50 (U251 glioblastoma)?
A: The GI50 was 2340 nM.

Q: And the TGI (U251 glioblastoma)?
A: Its TGI is greater than 100000 nM.

Q: What about the GI50 (NCI-H226 lung) of the same molecule?
A: Its GI50 is 648 nM.

Q: What about the TGI (NCI-H226 lung) of the same molecule?
A: The TGI was 4900 nM.

Q: What about the GI50 (SF-539 CNS) of the same molecule?
A: The GI50 was 446 nM.

Q: And the TGI (SF-539 CNS)?
A: Its TGI is greater than 100000 nM.

Q: And the GI50 (PC-3 prostate)?
A: The GI50 was 165 nM.

Q: And the TGI (PC-3 prostate)?
A: Its TGI is 7730 nM.

Q: And the GI50 (DU-145 prostate)?
A: The GI50 was 581 nM.

Q: What about the TGI (DU-145 prostate) of the same molecule?
A: Its TGI is greater than 100000 nM.

Q: What about the GI50 (IGROV1 ovarian) of the same molecule?
A: Its GI50 is 38.6 nM.

Q: And the TGI (IGROV1 ovarian)?
A: The TGI was 215 nM.

Q: What does the source list for `O=C(CCCCCCC(=O)N/N=C/c1ccc(N(c2ccccc2)c2ccccc2)cc1)NO`?
A: GI50 (MOLT-4 leukemia): 471 nM; TGI (MOLT-4 leukemia): 1510 nM; GI50 (CCRF-CEM leukemia): 979 nM; TGI (CCRF-CEM leukemia): 2260 nM; GI50 (SR leukemia): 144 nM; TGI (SR leukemia): 321 nM; GI50 (HCT-116 colon): 702 nM; TGI (HCT-116 colon): 1890 nM; GI50 (HCT-15 colon): 2800 nM; TGI (HCT-15 colon): 7260 nM; GI50 (MDA-MB-468 breast): 137 nM; TGI (MDA-MB-468 breast): 277 nM; GI50 (SNB-75 CNS): 2820 nM; TGI (SNB-75 CNS): 7800 nM; GI50 (U251 glioblastoma): 1610 nM; TGI (U251 glioblastoma): 3070 nM; GI50 (NCI-H226 lung): 187 nM; TGI (NCI-H226 lung): 365 nM; GI50 (SF-539 CNS): 2150 nM; TGI (SF-539 CNS): 4880 nM; GI50 (PC-3 prostate): 1770 nM; TGI (PC-3 prostate): 4330 nM; GI50 (DU-145 prostate): 1740 nM; TGI (DU-145 prostate): 3370 nM; GI50 (IGROV1 ovarian): 413 nM; TGI (IGROV1 ovarian): 1460 nM
